Measured values as given in ChEMBL document CHEMBL4819019, “Design, synthesis, antibacterial activity and toxicity of novel quaternary ammonium compounds based on pyridoxine and fatty acids” (Eur J Med Chem, 2021).

Key:
[1] = test system: Klebsiella sp.; test: Antibacterial activity against clinical isolate Klebsiella sp. 11 measured after 24 hrs by broth microdilution method; type: functional
[2] = test system: Micrococcus luteus; test: Antibacterial activity against Micrococcus luteus clinical isolate measured after 24 hrs by broth microdilution method; type: functional
[3] = test system: Pseudomonas aeruginosa; test: Antibacterial activity against Pseudomonas aeruginosa ATCC 27853 measured after 24 hrs by broth microdilution method; type: functional
[4] = test system: Enterococcus faecalis; test: Antibacterial activity against clinical isolate Enterococcus faecalis 23 measured after 24 hrs by broth microdilution method; type: functional
[5] = Genotoxicity in Salmonella typhimurium TA1535 assessed as number of revertant by Ames spot test relative to solvent control; type: toxicity; settings: salmonella enterica subsp. enterica serovar typhimurium
[6] = test system: Proteus sp.; test: Antibacterial activity against clinical isolate Proteus sp. 17 measured after 24 hrs by broth microdilution method; type: functional; settings: Proteus sp. (in: enterobacteria)
[7] = Cytotoxicity against human skin fibroblasts assessed as cell viability measured after 72 hrs by MTT assay; type: cell-based, Fibroblast
[8] = test system: Klebsiella pneumoniae; test: Antibacterial activity against clinical isolate Klebsiella pneumoniae 1813 measured after 24 hrs by broth microdilution method; type: functional
[9] = test system: Staphylococcus intermedius; test: Antibacterial activity against clinical isolate methicillin-resistant Staphylococcus intermedius 1061 measured after 24 hrs by broth microdilution method; type: functional
[10] = Cytotoxicity against human mesenchymal stem cells assessed as cell viability measured after 72 hrs by MTT assay; type: cell-based
[11] = test system: Serratia marcescens; test: Antibacterial activity against clinical isolate Serratia marcescens 1966 measured after 24 hrs by broth microdilution method; type: functional
[12] = Genotoxicity in Salmonella typhimurium TA1535/pSK1002 assessed as DNA-damage activity by measuring beta-galactosidase activity at 750 ug/ml measured by SOS-chromotest relative to solvent control; type: toxicity; settings: salmonella enterica subsp. enterica serovar typhimurium; dose 750 µg/ml
[13] = test system: Bacillus subtilis; test: Antibacterial activity against Bacillus subtilis 168 measured after 24 hrs by broth microdilution method; type: functional
[14] = test system: Pseudomonas sp.; test: Antibacterial activity against clinical isolate Pseudomonas sp. 5 measured after 24 hrs by broth microdilution method; type: functional
[15] = test system: Staphylococcus intermedius; test: Antibacterial activity against clinical isolate methicillin-resistant Staphylococcus intermedius 1143 measured after 24 hrs by broth microdilution method; type: functional
[16] = test system: Acinetobacter sp.; test: Antibacterial activity against clinical isolate Acinetobacter sp. 3 measured after 24 hrs by broth microdilution method; type: functional
[17] = test system: Staphylococcus aureus; test: Antibacterial activity against clinical isolate methicillin-resistant Staphylococcus aureus 1053 measured after 24 hrs by broth microdilution method; type: functional
[18] = test system: Escherichia coli; test: Antibacterial activity against Escherichia coli MG 1655 measured after 24 hrs by broth microdilution method; type: functional
[19] = test system: Escherichia coli; test: Antibacterial activity against clinical isolate Escherichia coli 718 measured after 24 hrs by broth microdilution method; type: functional
[20] = Genotoxicity in Salmonella typhimurium TA1535/pSK1002 assessed as DNA-damage activity by measuring beta-galactosidase activity at 150 ug/ml measured by SOS-chromotest relative to solvent control; type: toxicity; settings: salmonella enterica subsp. enterica serovar typhimurium; dose 150 µg/ml
[21] = Genotoxicity in Salmonella typhimurium TA1535/pSK1002 assessed as DNA-damage activity by measuring beta-galactosidase activity at 7.5 ug/ml measured by SOS-chromotest relative to solvent control; type: toxicity; settings: salmonella enterica subsp. enterica serovar typhimurium; dose 7.5 µg/ml
[22] = test system: Staphylococcus aureus; test: Antibacterial activity against Staphylococcus aureus ATCC 29213 measured after 24 hrs by broth microdilution method; type: functional
[23] = test system: Pseudomonas aeruginosa; test: Antibacterial activity against clinical isolate Pseudomonas aeruginosa 1945 measured after 24 hrs by broth microdilution method; type: functional
[24] = Cytotoxicity against human HEK293 cells assessed as cell viability measured after 72 hrs by MTT assay; type: cell-based
[25] = test system: Staphylococcus ureilyticus; test: Antibacterial activity against clinical isolate Staphylococcus ureilyticus 1972 measured after 24 hrs by broth microdilution method; type: functional
[26] = Genotoxicity in Salmonella typhimurium TA98 assessed as number of revertant by Ames spot test relative to solvent control; type: toxicity; settings: salmonella enterica subsp. enterica serovar typhimurium
[27] = test system: Staphylococcus aureus; test: Antibacterial activity against clinical isolate methicillin-resistant Staphylococcus aureus 1131 measured after 24 hrs by broth microdilution method; type: functional
[28] = test system: Staphylococcus aureus; test: Antibacterial activity against clinical isolate methicillin-resistant Staphylococcus aureus 983 measured after 24 hrs by broth microdilution method; type: functional
[29] = test system: Staphylococcus aureus; test: Antibacterial activity against clinical isolate Staphylococcus aureus 25 measured after 24 hrs by broth microdilution method; type: functional
[30] = Genotoxicity in Salmonella typhimurium TA1537 assessed as number of revertant by Ames spot test relative to solvent control; type: toxicity; settings: salmonella enterica subsp. enterica serovar typhimurium
[31] = test system: Staphylococcus aureus; test: Antibacterial activity against clinical isolate methicillin-resistant Staphylococcus aureus 713 measured after 24 hrs by broth microdilution method; type: functional
[32] = test system: Enterococcus faecalis; test: Antibacterial activity against clinical isolate Enterococcus faecalis 3063 measured after 24 hrs by broth microdilution method; type: functional
[33] = Genotoxicity in Salmonella typhimurium TA1535/pSK1002 assessed as DNA-damage activity by measuring beta-galactosidase activity at 15 ug/ml measured by SOS-chromotest relative to solvent control; type: toxicity; settings: salmonella enterica subsp. enterica serovar typhimurium; dose 15 µg/ml
[34] = Genotoxicity in Salmonella typhimurium TA1535/pSK1002 assessed as DNA-damage activity by measuring beta-galactosidase activity at 75 ug/ml measured by SOS-chromotest relative to solvent control; type: toxicity; settings: salmonella enterica subsp. enterica serovar typhimurium; dose 75 µg/ml
[35] = Genotoxicity in Salmonella typhimurium TA100 assessed as number of revertant by Ames spot test relative to solvent control; type: toxicity; settings: salmonella enterica subsp. enterica serovar typhimurium
[36] = Lipophilicity, logP of the compound; type: physicochemical; settings: octanol/water
[37] = test system: Moraxella; test: Antibacterial activity against clinical isolate Moraxella 765 measured after 24 hrs by broth microdilution method; type: functional
[38] = test system: Staphylococcus aureus; test: Antibacterial activity against clinical isolate methicillin-resistant Staphylococcus aureus 1065 measured after 24 hrs by broth microdilution method; type: functional

SMILES | MIC [1] [µg/mL] | MIC [2] [µg/mL] | MIC [3] [µg/mL] | MIC [4] [µg/mL] | Ratio [5] | MIC [6] [µg/mL] | CC50 at 72 h [7] [µg/mL] | MIC [8] [µg/mL] | MIC [9] [µg/mL] | CC50 at 72 h [10] [µg/mL] | MIC [11] [µg/mL] | Ratio [12] | MIC [13] [µg/mL] | MIC [14] [µg/mL] | MIC [15] [µg/mL] | MIC [16] [µg/mL] | MIC [17] [µg/mL] | MIC [18] [µg/mL] | MIC [22] [µg/mL] | logP [36] | other results
CCCCCCCCCCCCCC(=O)OCC[N+](C)(C)Cc1nc(C)c2c(c1CO)COC(C)(C)O2.[Cl-] | 64 | 1 | > 64 | 2 | 0.4 | > 64 | 2.24 | 2 | 4 | 1.02 | > 64 | 0.3 | 0.5 | 64 | 4 | 64 | 2 | 32 | 1 | 1.46 | MIC [19]: 32 µg/mL; Ratio [20]: 0.9; Ratio [21]: 1.8; MIC [23]: 64 µg/mL; CC50 at 72 h [24]: 0.88 µg/mL; MIC [25]: > 64 µg/mL; Ratio [26]: 2.5; MIC [27]: 4 µg/mL; MIC [28]: 32 µg/mL; MIC [29]: 2 µg/mL; Ratio [30]: 0.05; MIC [31]: 2 µg/mL; MIC [32]: 2 µg/mL; Ratio [33]: 1.6; Ratio [34]: 1.2; Ratio [35]: 2.1; MIC [37]: 64 µg/mL; MIC [38]: 4 µg/mL
CCCCCCCCCCCCCC(=O)OCC[N+](C)(C)Cc1cnc(C)c2c1COC(C)(C)O2.[Cl-] | 64 | 0.5 | 1 | 4 | 0.9 | > 64 | 1.94 | 64 | 8 | 1.08 | 64 | 0.4 | 1 | 64 | 8 | 64 | 8 | 8 | 0.5 | 2.14 | MIC [19]: 32 µg/mL; Ratio [20]: 0.6; Ratio [21]: 1.6; MIC [23]: 64 µg/mL; CC50 at 72 h [24]: 0.17 µg/mL; MIC [25]: > 64 µg/mL; Ratio [26]: 4.6; MIC [27]: 16 µg/mL; MIC [28]: 64 µg/mL; MIC [29]: 8 µg/mL; Ratio [30]: 0.02; MIC [31]: 8 µg/mL; MIC [32]: 4 µg/mL; Ratio [33]: 1.6; Ratio [34]: 1.2; Ratio [35]: 1.4; MIC [37]: 64 µg/mL; MIC [38]: 8 µg/mL
CCCCCCCCCCCC(=O)OCCC[N+](C)(C)Cc1cnc(C)c2c1COC(CCC)O2.[Cl-] (centres undefined) | 32 | 1 | 32 | 4 | 0.5 | > 64 | 4.32 | > 64 | 16 | 2.42 | > 64 | 0.5 | 2 | 32 | 16 | 64 | 8 | 4 | 2 | 2.14 | MIC [19]: 8 µg/mL; Ratio [20]: 1.1; Ratio [21]: 1.4; MIC [23]: > 64 µg/mL; CC50 at 72 h [24]: 2.15 µg/mL; MIC [25]: > 64 µg/mL; Ratio [26]: 1.8; MIC [27]: 16 µg/mL; MIC [28]: 32 µg/mL; MIC [29]: 8 µg/mL; Ratio [30]: 0.03; MIC [31]: 16 µg/mL; MIC [32]: 4 µg/mL; Ratio [33]: 1.4; Ratio [34]: 1.5; Ratio [35]: 2.4; MIC [37]: 64 µg/mL; MIC [38]: 16 µg/mL
CCCCCCCCCCCCCC(=O)NCC[N+](C)(C)Cc1cnc(C)c2c1COC(C)(CCC)O2.[Cl-] (centres undefined) | 32 | 1 | 8 | 1 | 0.5 | > 64 | 2.15 | 8 | 2 | 1.38 | 64 | 0.3 | 2 | 32 | 2 | 32 | 1 | 32 | 1 | 2.24 | MIC [19]: 8 µg/mL; Ratio [20]: 0.5; Ratio [21]: 1.5; MIC [23]: 64 µg/mL; CC50 at 72 h [24]: 1.16 µg/mL; MIC [25]: > 64 µg/mL; Ratio [26]: 4.4; MIC [27]: 2 µg/mL; MIC [28]: 16 µg/mL; MIC [29]: 2 µg/mL; Ratio [30]: 0.03; MIC [31]: 2 µg/mL; MIC [32]: 1 µg/mL; Ratio [33]: 1.6; Ratio [34]: 0.9; Ratio [35]: 0.7; MIC [37]: 16 µg/mL; MIC [38]: 2 µg/mL
CCCCCCCCCCCCCC(=O)OCC[N+](C)(C)Cc1cnc(C)c2c1COC(CCC)O2.[Cl-] (centres undefined) | 32 | 0.5 | 1 | 4 | 0.4 | > 64 | 2.18 | 64 | 2 | 1.28 | > 64 | 0.3 | 4 | 64 | 4 | 64 | 2 | 16 | 0.5 | 2.97 | MIC [19]: 32 µg/mL; Ratio [20]: 1.3; Ratio [21]: 1.4; MIC [23]: > 64 µg/mL; CC50 at 72 h [24]: 1 µg/mL; MIC [25]: > 64 µg/mL; Ratio [26]: 4.7; MIC [27]: 4 µg/mL; MIC [28]: 64 µg/mL; MIC [29]: 2 µg/mL; Ratio [30]: 0.04; MIC [31]: 2 µg/mL; MIC [32]: 4 µg/mL; Ratio [33]: 1.5; Ratio [34]: 1.5; Ratio [35]: 1.2; MIC [37]: 64 µg/mL; MIC [38]: 2 µg/mL
CCCCCCCCCCCCCCCCCC(=O)NCCC[N+](C)(C)Cc1cnc(C)c2c1COC(C)(C)O2.[Cl-] | 64 | 4 | 8 | 4 |  | > 64 |  | > 64 | 8 |  | > 64 |  | 8 | 64 | 16 | 64 | 8 | > 64 | 4 | 3.25 | MIC [19]: > 64 µg/mL; MIC [23]: > 64 µg/mL; MIC [25]: > 64 µg/mL; MIC [27]: 16 µg/mL; MIC [28]: 64 µg/mL; MIC [29]: 8 µg/mL; MIC [31]: 16 µg/mL; MIC [32]: 4 µg/mL; MIC [37]: > 64 µg/mL; MIC [38]: 8 µg/mL
CCCCCCCCCCCCCC(=O)NCCC[N+](C)(C)Cc1cnc(C)c2c1COC(C)(C)O2.[Cl-] |  | 1 | 8 |  | 0.4 |  | 3.14 |  |  | 2.21 |  | 1 | 2 |  |  |  |  | 8 | 0.5 | 1.47 | Ratio [20]: 0.5; Ratio [21]: 1.5; CC50 at 72 h [24]: 1.61 µg/mL; Ratio [26]: 2.6; Ratio [30]: 0.03; Ratio [33]: 1.5; Ratio [34]: 0.7; Ratio [35]: 2.5
